According to US10793522B2, “Sulfonamides as inhibitors of the uptake of extracellular citrate” (Boehringer Ingelheim International GmbH, priority 2016, dated 2020):

How the values were obtained:
hSLC13A5 [1] = target: T1, hSLC13A5 (Homo sapiens, UniProt Q86YT5); experiment: HepG2/14C-citrate uptake assay; assay type: cell-based; design: HepG2 cells endogenously express hSLC13A5 transporter which is responsible for the uptake of citrate into these cells; endogenous in cells; host or cells: HepG2; conditions: HepG2 cells endogenously expressing hSLC13A5; Cytostar-T; 14C-citrate ~1.8 μM; incubation over night
T1 sequence (Q86YT5 whole entry): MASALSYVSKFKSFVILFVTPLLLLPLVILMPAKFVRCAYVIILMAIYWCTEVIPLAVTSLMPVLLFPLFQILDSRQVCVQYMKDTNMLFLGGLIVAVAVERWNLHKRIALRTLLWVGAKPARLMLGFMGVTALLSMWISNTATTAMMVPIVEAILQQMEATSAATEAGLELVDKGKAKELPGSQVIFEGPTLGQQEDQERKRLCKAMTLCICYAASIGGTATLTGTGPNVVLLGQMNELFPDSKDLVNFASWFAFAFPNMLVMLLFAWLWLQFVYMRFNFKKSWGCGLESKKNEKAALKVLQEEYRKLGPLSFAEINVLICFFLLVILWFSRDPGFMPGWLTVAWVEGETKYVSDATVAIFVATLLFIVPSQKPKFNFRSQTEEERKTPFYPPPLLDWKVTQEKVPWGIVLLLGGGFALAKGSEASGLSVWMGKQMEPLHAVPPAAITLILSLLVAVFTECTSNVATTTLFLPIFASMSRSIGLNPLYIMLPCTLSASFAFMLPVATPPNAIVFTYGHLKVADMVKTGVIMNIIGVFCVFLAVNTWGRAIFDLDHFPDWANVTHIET
Source text: (4) HepG2/^14C-Citrate Uptake Assay
HepG2 cells endogenously expressing hSLC13A5 were obtained from the Wistar Institute (Knowles et al., Science 1980, 209, 497-499).
HepG2 cells endogenously express hSLC13A5 transporter which is responsible for the uptake of citrate into these cells. […] The uptake of ^14C-citrate into HepG2 cells is monitored using the Cytostar-T assay. This assay format is based on the imported radioactive citrate brought into proximity with the scintillant contained within the base of the plate by virtue of the biological processes within the cells. The radioactive decay is converted to a light signal based on the integration of the scintillation matrix into the assay plate.
(§1) Method: ^14C-Citrate Uptake Assay
Starting from 10 mM stock solutions in 100% DMSO, compounds are diluted in pure DMSO using the appropriate dilution steps. Prior to the uptake assay, 400 μL assay medium+4.8 μL compound solution (or pure DMSO for non-inhibited control wells) are mixed (final DMSO concentration in the assay: 1% (v/v)) ^14C-citrate working solution (volumes required per 96-well):
The HepG2 cells are cultivated in cell culture medium (EMEM+10% fetal calf serum+1×NEAA and 10 mM L-Glutamin) For the assay, the medium of the confluent cultures is discarded and the cells are washed with DPBS w/o Mg^2+ w/o Ca^2+. The cells are detached by the addition of 1.0 mL 2× Trypsin in DPBS w/o Mg^2+ w/o Ca^2+ with 7.5 mM EDTA per 75 cm^2 culture flask for up to 3 minutes at 37° C. and resuspended in 10 mL cell culture medium. Following cell counting, 100,000 cells/well are seeded in a volume of 200 μL into Cytostar-T Scintillating 96-well microplates. After overnight incubation in a humid cell culture incubator at 37° C., 5% CO2, the cell culture medium is carefully aspirated and the cells are incubated with 200 μL prewarmed (37° C.) assay medium (50% DMEM+50% Ham's F-12+15 mM HEPES (pH 7.4) (medium contains 15.5 m M D(+)-glucose) per well for at least 1 h prior to the experiment.
Immediately prior to uptake assay, the assay medium is carefully removed and 100 μL test compound dilution is added to each well (n=3).
Following a 20 min incubation at 37° C. in the cell culture incubator, 20 μL of ^14C-citrate working solution is added to each well (final volume per well: 120 μL; final ^14C-citrate concentration ˜1.8 μM/well)).
After incubation over night at 37° C. in the cell culture incubator, the plates are sealed on the top using a transparent plastic foil and on the bottom using a white plastic foil. Following the sealing, the plate is placed into the TopCount NXT HTS and the signal is recorded.
(§2) The IC50 values of the compounds are calculated in IDBS XLfit by sigmoidal dose-response (variable slope).

hSLC13A5 [2] = target: T1, hSLC13A5; experiment: Recombinant hSLC13A5/14C-citrate uptake assay; assay type: cell-based; conditions: HEK293 Flp-In cells over-expressing hSLC13A5; WGA-PVT SPA beads; 14C-citrate approx. 2 μM; 4 h
Source text: (5) Recombinant hSLC13A5/^14C-Citrate Uptake Assay
The human embryonic kidney 293 (HEK 293)-Flp-In cells (293Flp-In-hSLC13A5) over-expressing hSLC13A5 transporter were cloned: The originating plasmid pcDNA3.1-hSLC13A5 containing hSLC13A5 was synthesized at GeneArt. The cDNA for hSLC13A5 was taken from this plasmid by means of PCR amplification using primers with added HindIII (N-terminal) and XhoI (C-terminal) restriction sites and sub-cloned in frame into pcDNA5/FRT from Invitrogen using the respective restriction enzymes. HEK293 Flp-In cells from Invitrogen were stably co-transfected using the pcDNA/FRT-hSLC13A5 plasmid as well as the pOG44 plasmid.
HEK 293-Flp-In cells are used that stably over-express hSLC13A5 transporter which is responsible for the uptake of citrate into these cells.
The uptake of ^14C-citrate into the 293Flp-In-hSLC13A5 cells is monitored using the WGA-PVT SPA (wheat germ agglutinin-polyvinyltoluene scintillation proximity assay) beads that bind to the 293Flp-In cells due to their WGA-PVT surface. This assay format is based on the imported radioactive citrate brought into proximity with the SPA beads by virtue of the biological processes within the cells. The radioactive decay is converted into a light signal that can be measured using e.g. the TopCount plate reader.
as §1
Test Compound Dilutions (2Fold-Concentrated):
Starting from 10 mM stock solutions in 100% DMSO, compounds are diluted in pure DMSO using the appropriate dilution steps.
Prior to the uptake assay, 200 μL assay medium (lx HBSS (with Ca^2+ and Mg^2+, w/o Phenolred), contains 5.56 mM D(+)-Glucose)+19.44 mM D(+)-Glucose (final concentration of D(+)-Glucose is 25 mM))+4.8 μL compound solution (or pure DMSO for non-inhibited control wells) are mixed (final DMSO concentration in the assay: 1% (v/v)).
After preparing the 2fold-concentrated test compound dilutions, 50 μL are pipetted to each well of white OptiPlates-96 and incubated at 37° C. in an incubator.
^14C-Citrate Working Solution (Volumes Required Per 96-Well):
The 293Flp-In-hSLC13A5 cells are cultivated in cell culture medium (DMEM+10% fetal calf serum+100 μg/mL Hygromycin B). The medium of the confluent cultures is discarded and the cells are washed with DPBS (w/o Mg^2+ w/o Ca^2+). The cells are detached by the addition of 2.0 mL Accumax per 75 cm^2 culture flask for up to 3 minutes at 37° C. and resuspended in 10 mL assay medium. After cell counting, 50,000 cells/well are administered in a volume of 50 μL into the white OptiPlates-96 containing the respective test compound concentrations. Following a 20 min incubation at 37° C. in the cell culture incubator, 20 μL of ^14C-citrate working solution is added to each well (final volume per well: 120 μL; final ^14C-citrate concentration: approx. 2 μM/well).
After incubation for 4 h at 37° C. in a humid cell culture incubator and the addition of 30 μL of WGA-PVT SPA beads to each well (0.25 mg/well), the plates are sealed on the top using a transparent plastic foil. Incubate the plates for 1 h by room temperature and gentle shaking.
After incubation, the plate is placed into the TopCount NXT HTS and the signal is recorded.
The performance of the test compounds is calculated as follows:
Wells containing cells incubated with 1% DMSO only deliver values for the non-inhibited ^14C-citrate uptake into 293Flp-In-hSLC13A5 cells (100% CTL). Wells containing cells which have received 30 mM non-labelled potassium citrate solution in addition to the ^14C-citrate working solution deliver values for the background (0% CTL).
as §2

SMILES | IC50 (hSLC13A5 [1]) [nM] | IC50 (hSLC13A5 [2]) [nM]
O=C(NCc1ccc(Cl)nc1)C1CCN(S(=O)(=O)c2cc(Cl)cc(Cl)c2)CC1 [(I-3)] | 471 | –
Cc1cc(C)cc(CNC(=O)C2CCN(S(=O)(=O)c3cc(Cl)cc(Cl)c3)CC2)c1 [(I-4)] | 94 | –
O=C(NCc1ccccc1Br)C1CCN(S(=O)(=O)c2cc(Cl)cc(Cl)c2)CC1 [(I-6)] | 82 | –
O=C(NCc1nccs1)C1CCN(S(=O)(=O)c2cc(Cl)cc(Cl)c2)CC1 [(I-9)] | 246 | 303
O=C(NCc1ccc(Cl)cn1)C1CCN(S(=O)(=O)c2cc(Cl)cc(Cl)c2)CC1 [(I-12)] | 103 | 132
COc1ncccc1CNC(=O)C1CCN(S(=O)(=O)c2cc(Cl)cc(Cl)c2)CC1 [(I-13)] | 201 | 475
Cc1csc(CNC(=O)C2CCN(S(=O)(=O)c3cc(Cl)cc(Cl)c3)CC2)n1 [(I-14)] | 83 | –
Cc1ccc(CNC(=O)C2CCN(S(=O)(=O)c3cc(Cl)cc(Cl)c3)CC2)cn1 [(I-16)] | 632 | 675
CCc1ccc(CNC(=O)C2CCN(S(=O)(=O)c3cc(Cl)cc(Cl)c3)CC2)nc1 [(I-17)] | 130 | 138
Cc1ccccc1CNC(=O)C1CCN(S(=O)(=O)c2cc(Cl)cc(Cl)c2)CC1 [(I-19)] | 72 | –
O=C(NCc1ccc(F)cc1Cl)C1CCN(S(=O)(=O)c2cc(Cl)cc(Cl)c2)CC1 [(I-22)] | 84 | –
N#Cc1ccc(CNC(=O)C2CCN(S(=O)(=O)c3cc(Cl)cc(Cl)c3)CC2)c(F)c1 [(I-23)] | 142 | 91
O=C(NCc1cc(F)ccc1F)C1CCN(S(=O)(=O)c2cc(Cl)cc(Cl)c2)CC1 [(I-24)] | 83 | –
O=C(NCc1cccc(Cl)n1)C1CCN(S(=O)(=O)c2cc(Cl)cc(Cl)c2)CC1 [(I-26)] | 290 | 449
O=C(NCc1ccc(Br)cn1)C1CCN(S(=O)(=O)c2cc(Cl)cc(Cl)c2)CC1 [(I-28)] | 171 | 127
CCc1ccc(CNC(=O)C2CCN(S(=O)(=O)c3cc(Br)cc(Br)c3)CC2)nc1 [(I-31)] | 66 | 41
COc1ncccc1CNC(=O)C1CCN(S(=O)(=O)c2cc(Br)cc(Br)c2)CC1 [(I-33)] | 182 | 275
O=C(NCc1ccc(F)cn1)C1CCN(S(=O)(=O)c2cc(Br)cc(Br)c2)CC1 [(I-35)] | 147 | 54
O=C(NCc1cccnc1)C1CCN(S(=O)(=O)c2cc(Br)cc(Br)c2)CC1 [(I-36)] | 448 | 354
O=C(NCc1ccccn1)C1CCN(S(=O)(=O)c2cc(Br)cc(Br)c2)CC1 [(I-37)] | 253 | 89
Cc1cc(C)cc(S(=O)(=O)N2CCC(C(=O)NCc3nc(C)cs3)CC2)c1 [(I-41)] | 155 | 438
COc1ccccc1CNC(=O)C1CCN(S(=O)(=O)c2cc(C)cc(C)c2)CC1 [(I-44)] | 132 | 703
Cc1cc(C)cc(S(=O)(=O)N2CCC(C(=O)NCc3ncc(C)s3)CC2)c1 [(I-46)] | 202 | 398
CCOc1cc(Cl)cc(S(=O)(=O)N2CCC(C(=O)NCc3ccc(C#N)cc3F)CC2)c1 [(I-50)] | 73 | 127

The remaining compounds from weak to strong by IC50 (hSLC13A5 [1]), led by results:

IC50 (hSLC13A5 [1]) [nM] | IC50 (hSLC13A5 [2]) [nM] | SMILES
65 | – | COc1ccccc1CNC(=O)C1CCN(S(=O)(=O)c2cc(Cl)cc(Cl)c2)CC1 [(I-21)]
60 | – | O=C(NCc1ccccc1Cl)C1CCN(S(=O)(=O)c2cc(Cl)cc(Cl)c2)CC1 [(I-18)]
46 | – | Cc1cc(C)cc(S(=O)(=O)N2CCC(C(=O)NCc3ccc(C#N)cc3)CC2)c1 [(I-43)]
43 | – | Cc1csc(CNC(=O)C2CCN(S(=O)(=O)c3cc(Br)cc(Br)c3)CC2)n1 [(I-29)]
37 | – | Cc1ccc(CNC(=O)C2CCN(S(=O)(=O)c3cc(Cl)cc(Cl)c3)CC2)cc1 [(I-8)]
37 | – | O=C(NCc1ccc(Cl)cc1F)C1CCN(S(=O)(=O)c2cc(Cl)cc(Cl)c2)CC1 [(I-25)]
35 | – | Cc1cc(C)cc(S(=O)(=O)N2CCC(C(=O)NCc3ccc(F)cc3)CC2)c1 [(I-42)]
34 | – | Cc1cc(C)cc(S(=O)(=O)N2CCC(C(=O)NCc3ccccc3F)CC2)c1 [(I-47)]
30 | – | O=C(NCc1ccc(Br)cc1)C1CCN(S(=O)(=O)c2cc(Cl)cc(Cl)c2)CC1 [(I-7)]
27 | – | COc1ccccc1CNC(=O)C1CCN(S(=O)(=O)c2cc(Br)cc(Br)c2)CC1 [(I-34)]
25 | – | Cc1cc(C)cc(S(=O)(=O)N2CCC(C(=O)NCc3ccc(Cl)cc3)CC2)c1 [(I-45)]
23 | – | N#Cc1ccc(CNC(=O)C2CCN(S(=O)(=O)c3cc(Br)cc(Br)c3)CC2)cc1 [(I-32)]
17 | 26 | O=C(NCc1ccc(F)cc1)C1CCN(S(=O)(=O)c2cc(Br)cc(Br)c2)CC1 [(I-40)]
17 | – | Cc1cc(C)cc(S(=O)(=O)N2CCC(C(=O)NCc3ccc(Br)cc3)CC2)c1 [(I-48)]
14 | – | O=C(NCc1ccc(Cl)cc1)C1CCN(S(=O)(=O)c2cc(Br)cc(Br)c2)CC1 [(I-30)]
14 | – | O=C(NCc1ccccc1F)C1CCN(S(=O)(=O)c2cc(Br)cc(Br)c2)CC1 [(I-38)]
14 | – | O=C(NCc1ccc(Br)cc1)C1CCN(S(=O)(=O)c2cc(Br)cc(Br)c2)CC1 [(I-39)]
14 | 66 | CCOc1cc(Cl)cc(S(=O)(=O)N2CCC(C(=O)NCc3ccc(F)cc3)CC2)c1 [(I-51)]
